Columns and labels:
FIH = biological target: T1, FIH (Homo sapiens, UniProt Q9NWT6); test: FIH activity assay: 2-OG consumption detected by OPD derivatisation and fluorescence; format: biochemical; settings: for effect on 2-OG consumption by FIH: inhibitor 1 mM, in the presence of prime substrate and 2-OG, FIG. 7
T1 construct: FIH and GST-tagged HIF-1α 786-826 were prepared as described previously; made in house
Protocol: The assay of FIH activity was carried out by mixing 1 mM DTT, 0.6 mg/ml catalase, 2-OG, substrate and 50 mM Tris/HCl pH 7.5 to a final volume of 88 μl warming to 37° C. for 5 minutes in a water bath. Simultaneously, the enzyme and iron (prepared as 500 mM stock in 20 mM HCl, and diluted with water) were mixed at room temperature for 3 minutes. Reaction was initiated by addition of 12 μl of enzyme/iron mix to the substrate/cofactor mix. The reaction was stopped by addition of 200 μl 0.5M HCl; derivatisation was then achieved by the addition of 100 μl 10 mg/ml OPD in 0.5M HCl, and heating for 10 minutes at 95° C. in a heating block.

PHD2 = biological target: T2, PHD2 (Homo sapiens, UniProt Q9GZT9); test: PHD2 activity assay: 2-OG consumption detected by OPD derivatisation and fluorescence; format: biochemical; settings: inhibitor 1 mM; Tris and HEPES buffers; FIG. 9
T2 construct: a form of the enzyme that has had the first 180 amino acids (including those containing a MYND finger motif) removed; made in house; host or cells: Escherichia coli BL21(DE3)
Text: The PHD2 used was a form of the enzyme that has had the first 180 amino acids (including those containing a MYND finger motif) removed. Thus the enzyme, after removal of the affinity tag, has a N-terminus of […]; we have found this form of PHD2 to be preferred in the in vitro assays. The enzyme was expressed from the pET28a(+) vector (Novagen), with the gene cloned between NheI and BamHI restriction sites. Growth and induction were using standard techniques, in that the pET28a(+) vector was transformed into BL21(DE3) Escherichia coli cells, and grown in 2TY medium at 37° C. until the absorbance of the solution of 600 nm was 0.8. IPTG was added to a final concentration of 0.5 mM and growth was continued for three hours. Affinity purification using Novagen His-Bind resin was as per the manufacturers instructions.
The assay was carried out as for the FIH, but the buffer used was 50 mM HEPES pH7.0.

T1 sequence (Q9NWT6 whole entry): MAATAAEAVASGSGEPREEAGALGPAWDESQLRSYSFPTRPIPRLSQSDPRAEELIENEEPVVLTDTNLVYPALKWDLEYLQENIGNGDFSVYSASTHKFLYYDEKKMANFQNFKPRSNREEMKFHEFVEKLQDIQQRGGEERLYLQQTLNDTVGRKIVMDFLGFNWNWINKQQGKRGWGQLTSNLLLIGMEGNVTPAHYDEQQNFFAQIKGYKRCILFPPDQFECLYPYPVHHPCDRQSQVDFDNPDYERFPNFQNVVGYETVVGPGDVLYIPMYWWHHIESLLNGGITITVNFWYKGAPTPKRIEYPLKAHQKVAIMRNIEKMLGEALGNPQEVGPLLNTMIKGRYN
T2 sequence (Q9GZT9 with tags, fused parts or gaps): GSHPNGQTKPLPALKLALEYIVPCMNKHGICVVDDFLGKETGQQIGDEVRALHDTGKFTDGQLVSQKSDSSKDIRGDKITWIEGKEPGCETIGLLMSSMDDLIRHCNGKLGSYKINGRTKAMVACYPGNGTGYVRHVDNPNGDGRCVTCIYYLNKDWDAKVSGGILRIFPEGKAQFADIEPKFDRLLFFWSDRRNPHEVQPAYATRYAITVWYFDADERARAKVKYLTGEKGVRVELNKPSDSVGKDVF

Row | Compound | effect on 2-OG consumption by FIH (FIH) | IC50 (FIH) | inhibition of PHD2 (PHD2)
1 | O=C(O)c1c[nH]c2c(ccc3cccnc32)c1=O [FG0041] | eliminated the 2-OG consumption by FIH |  | 
2 | O=C(O)CNC(=O)C(=O)O [N-oxalylglycine] | eliminated the 2-OG consumption by FIH | 40 µM | 
3 | O=C(O)C(=O)N[C@H](Cc1ccccc1)C(=O)O [NOFD, N-oxalyl-D-phenylalanine] |  |  | little, if any, inhibition of PHD2
